Reference: patent US20140329682A1, “METHOD OF CONTROLLING WEED IN A SUGAR CANE FIELD” (SUMITOMO CHEMICAL COMPANY, LIMITED, priority 2011, published 2014)

Key:
Type in all cases: in vivo
sugar cane [1] = assay: Phytotoxicity on sugar cane, spray from upper side of pot, sugar cane at 4 to 5 leaves (Example 2); conditions: 125 g (active ingredient)/ha, one week after treatment, scale 0 to 100
Protocol: (§1) A sugar cane, a foliage of which had grown to about 4 to 5 leaves, was selected, and the length of the stem cutting was adjusted to be 8 cm, 15 cm or 25 cm. The 8 cm or 15 cm stem cutting had one node, and the 25 cm stem cutting had two nodes. A soil was packed into a 32 cm×25 cm×11 cm plastic pot, and seeds of Amaranthus retroflexus were seeded thereon. […] On the date when the stem cutting was planted, and after planting of the stem cutting, a water-diluted liquid of a flumioxazin water dispersible granule (water dispersible granule containing 51% flumioxazin, trade name: Valor SX, manufactured by Valent USA Corporation) (250 ppm) was uniformly sprayed with a sprayer from an upper side of the pot at an amount described in Table 2. Thereafter, the pot for a test was placed in a greenhouse. One week after treatment with flumioxazin, phytotoxicity on sugar cane was determined and, four weeks after treatment with flumioxazin, the herbicidal activity against Amaranthus retroflexus was determined.

Amaranthus retroflexus [2] = assay: Herbicidal activity, soil surface spray on day of planting (Example 1); conditions: four weeks after treatment, scale 0 to 100
Protocol: The stem cutting from which a bud had grown to about 1 cm was selected, and the length of the stem cutting was adjusted to be 3 cm, 15 cm or 25 cm. The stem cutting of 3 cm or 15 cm had only one node, and the stem cutting of 25 cm had two nodes. A soil was packed into a 32 cm×25 cm×11 cm plastic pot, and seeds of Amaranthus retroflexus were seeded thereon. […] On the date when the stem cutting was planted, and after planting of the stem cutting, a water-diluted liquid of a flumioxazin water dispersible granule (water dispersible granule containing 51% floumioxazin, trade name: Valor SX, manufactured by Valent USA Corporation) (100 ppm or 250 ppm) was uniformly sprayed on the soil surface with a sprayer at an amount described in Table 1. Thereafter, the pot for a test was placed in a greenhouse. Four weeks after treatment with flumioxazin, phytotoxicity on sugar cane and the herbicidal activity against Amaranthus retroflexus were determined.

sugar cane [3] = assay: Phytotoxicity on sugar cane, spray from upper side of pot, sugar cane at 4 to 5 leaves (Example 3); conditions: 70 g (active ingredient)/ha, one week after treatment, scale 0 to 100
Protocol: as §1, with “8” for “8 cm, 15”, “8” for “8 cm or 15”, “saflufenacil (140” for “a flumioxazin water dispersible granule (water dispersible granule containing 51% flumioxazin, trade name: Valor SX, manufactured by Valent USA Corporation) (250”, “3. The water-diluted liquid of saflufenacil was prepared by dissolving a predetermined amount of saflufenacil in acetone containing 2% (w/v) Tween 20, and diluting this solution with water so that the acetone concentration became 10% by volume.” for “2.”, “saflufenacil,” for “flumioxazin,”

Amaranthus retroflexus [4] = assay: Herbicidal activity, spray from upper side of pot, sugar cane at 4 to 5 leaves (Example 3); conditions: 70 g (active ingredient)/ha, four weeks after treatment, scale 0 to 100
Protocol: as §1, with “8” for “8 cm, 15”, “8” for “8 cm or 15”, “saflufenacil (140” for “a flumioxazin water dispersible granule (water dispersible granule containing 51% flumioxazin, trade name: Valor SX, manufactured by Valent USA Corporation) (250”, “3. The water-diluted liquid of saflufenacil was prepared by dissolving a predetermined amount of saflufenacil in acetone containing 2% (w/v) Tween 20, and diluting this solution with water so that the acetone concentration became 10% by volume.” for “2.”, “saflufenacil,” for “flumioxazin,”

| Compound | Phytotoxicity on sugar cane (sugar cane [1]; stem cutting 8 cm (one node)) | Phytotoxicity on sugar cane (sugar cane [1]; stem cutting 15 cm (one node)) | Phytotoxicity on sugar cane (sugar cane [1]; stem cutting 25 cm (two nodes)) | Herbicidal activity (Amaranthus retroflexus [2]; 50 g (active ingredient)/ha, stem cutting 3 cm) | Herbicidal activity (Amaranthus retroflexus [2]; 50 g (active ingredient)/ha, stem cutting 15 cm) | Herbicidal activity (Amaranthus retroflexus [2]; 50 g (active ingredient)/ha, stem cutting 25 cm) | Herbicidal activity (Amaranthus retroflexus [2]; 125 g (active ingredient)/ha, stem cutting 3 cm) | Herbicidal activity (Amaranthus retroflexus [2]; 125 g (active ingredient)/ha, stem cutting 15 cm) | Herbicidal activity (Amaranthus retroflexus [2]; 125 g (active ingredient)/ha, stem cutting 25 cm) | Phytotoxicity on sugar cane (sugar cane [3]; stem cutting 8 cm (one node)) | Phytotoxicity on sugar cane (sugar cane [3]; stem cutting 25 cm (two nodes)) | Herbicidal activity (Amaranthus retroflexus [4]; stem cutting 8 cm) | Herbicidal activity (Amaranthus retroflexus [4]; stem cutting 25 cm) |
| --- | --- | --- | --- | --- | --- | --- | --- | --- | --- | --- | --- | --- | --- |
| C#CCN1C(=O)COc2cc(F)c(N3C(=O)C4=C(CCCC4)C3=O)cc21 [Flumioxazin, flumioxazin] | 10 | 10 | 30 | 100 | 100 | 100 | 100 | 100 | 100 |  |  |  |  |
| CC(C)N(C)S(=O)(=O)NC(=O)c1cc(-n2c(=O)cc(C(F)(F)F)n(C)c2=O)c(F)cc1Cl [Saflufenacil, saflufenacil] |  |  |  |  |  |  |  |  |  | 0 | 15 | 100 | 100 |
